Source: US11903994B2, “Dosing regimens” (Apellis Pharmaceuticals, Inc., priority 2015, dated 2024)
Non-standard residues stand in square brackets, D forms with d. Trp(5-F) = N[C@@H](Cc1c[nH]c2ccc(F)cc12)C(=O)O; Trp(6-F) = N[C@@H](Cc1c[nH]c2cc(F)ccc12)C(=O)O; Bpa = N[C@@H](Cc1ccc(C(=O)c2ccccc2)cc1)C(=O)O; 1Nal = N[C@@H](Cc1cccc2ccccc12)C(=O)O; 2Nal = N[C@@H](Cc1ccc2ccccc2c1)C(=O)O; Igl = N[C@H](C(=O)O)C1Cc2ccccc2C1

Columns and labels:
complement activation = settings: relative to compstatin amidated at the C-terminus; published data; cited from earlier work
[1] = Inhalation study, repeated dosing; assay type: in vivo, dog; settings: 25 mg/kg/d, 7 day repeated dose, inhaled CA28
Method: (§1) Inhalation studies of single dose or repeated dosing were conducted in dog and cynomolgus monkey. […] These doses were 25 mg/kg/d in a 7 day repeated dose study in the dog, 80 mg/kg in a single dose study in the monkey, and 30 mg/kg/day in a 14 day repeated dose in the monkey.

[2] = Inhalation studies, single and repeated dosing; assay type: in vivo, cynomolgus monkey; settings: inhaled CA28
Method: as §1

[3] = Phase 1 single and multiple ascending dose trial, inhaled (nebulized), healthy volunteers; assay type: in vivo, human
Method: In the single ascending dose part of the trial, 16 subjects were enrolled in four cohorts of four subjects each.
Four subjects were enrolled in the first cohort of the multiple ascending dose part of the trial. These subjects were to receive 14 consecutive days of treatment with a 60 mg/day dose of the drug. […] The trial was paused and subsequently resumed, with subjects receiving 30 mg/day. […] The trial was then terminated.

Ac-ICVYQDWGAHRCT-CONH2 [Ac-V4Y/H9A]
Activity over compstatin (complement activation): 14xmore

Ac-ICV(2-Nal)QDWGAHRCT-COOH (Ac-ICV[2Nal]QDWGAHRCT-OH; not fully specified (bridges); printed as Ac-ICV(2-Nal)QDWGAHRCT-COOH; cysteine pairing not given here) [Ac V4(2-Nal)/H9A-OH]
Activity over compstatin (complement activation): 38xmore

Ac-ICVDhtQDWGAHRCT-COOH [Ac-V4Dht/H9A-OH]
Activity over compstatin (complement activation): 5xmore

Ac-ICV(2-lgl)QDWGAHRCT-COOH (Ac-ICV[Igl]QDWGAHRCT-OH; not fully specified (bridges); printed as Ac-ICV(2-lgl)QDWGAHRCT-COOH; cysteine pairing not given here) [Ac-V42lgl/H9A-OH]
Activity over compstatin (complement activation): 37xmore

Ac-ICV(1-Nal)QDWGAHRCT-COOH (Ac-ICV[1Nal]QDWGAHRCT-OH; not fully specified (bridges); printed as Ac-ICV(1-Nal)QDWGAHRCT-COOH; cysteine pairing not given here) [Ac V4(1-Nal)/H9A-OH]
Activity over compstatin (complement activation): 30xmore

Ac-ICVVQDWGHHRCT-CONH2 [Ac-compstatin]
Activity over compstatin (complement activation): 3xmore

Ac-ICV(5fW)QDWGAHRCT-CONH2 [Ac-V4(5fW)/H9A]
Activity over compstatin (complement activation): 31xmore

Ac-ICVWQD(5fW)GAHRCT-CONH2 [Ac-V4W/W7(5fW)/H9A]
Activity over compstatin (complement activation): 121xmore

H-GICV(5fW)QD(5fW)GAHRCTN-COOH (H-GICV[Trp(5-F)]QD[Trp(5-F)]GAHRCTN-OH; not fully specified (bridges); cysteine pairing not given here) [G/V4(5f-W)/W7(5fW)/H9A + N-OH]
Activity over compstatin (complement activation): 112xmore

CC[C@H](C)[C@H](NC(C)=O)C(=O)N[C@H]1CSSC[C@@H](C(=O)N[C@H](C(N)=O)[C@@H](C)O)NC(=O)[C@H](CCCNC(=N)N)NC(=O)[C@H](Cc2cnc[nH]2)NC(=O)[C@H](C)NC(=O)CNC(=O)[C@H](Cc2c[nH]c3ccccc23)NC(=O)[C@H](CC(=O)O)NC(=O)[C@H](CCC(N)=O)NC(=O)[C@H](Cc2cn(C)c3ccccc23)NC(=O)[C@H](C(C)C)NC1=O [CA28]
findings at the highest inhaled dose tested [1]: no drug-related findings | findings at the highest inhaled dose tested ([2]; 30 mg/kg/day, 14 day repeated dose): no drug-related findings | findings at the highest inhaled dose tested ([2]; 80 mg/kg, single dose): no drug-related findings | adverse event possibly related to the pharmacology of the drug ([3]; inhaled CA28 30 mg/day, after 10 days of treatment): Another subject developed signs and symptoms consistent with a potential bacterial infection | adverse event possibly related to the pharmacology of the drug ([3]; inhaled CA28 60 mg/day, following nine days of treatment): one subject developed signs and symptoms consistent with a potential bacterial infection

Ac-ICVWQDWGAHRCdT-COOH [Ac-V4W/H9A/T13dT-OH]
Activity over compstatin (complement activation): 55xmore

Ac-ICVWQDWGAHRCT-CONH2 [Ac-V4W/H9A]
Activity over compstatin (complement activation): 45xmore

Ac-ICV(5-methyl-W)QDWGAHRCT-CONH2 [Ac-V4(5-MeW)/H9A]
Activity over compstatin (complement activation): 67xmore

Ac-ICV(2-Nal)QDWGAHRCT-CONH2 (Ac-ICV[2Nal]QDWGAHRCT-NH2; not fully specified (bridges); printed as Ac-ICV(2-Nal)QDWGAHRCT-CONH2; cysteine pairing not given here) [Ac-V4(2-Nal)/H9A]
Activity over compstatin (complement activation): 99xmore

Ac-ICV(Bpa)QDWGAHRCT-CONH2 (Ac-ICV[Bpa]QDWGAHRCT-NH2; not fully specified (bridges); printed as Ac-ICV(Bpa)QDWGAHRCT-CONH2; cysteine pairing not given here) [Ac-V4(Bpa)/H9A]
Activity over compstatin (complement activation): 86xmore

Ac-ICV(Bpa)QDWGAHRCT-COOH (Ac-ICV[Bpa]QDWGAHRCT-OH; not fully specified (bridges); printed as Ac-ICV(Bpa)QDWGAHRCT-COOH; cysteine pairing not given here) [Ac-V4(Bpa)/H9A-OH]
Activity over compstatin (complement activation): 49xmore

H-GICV(6fW)QD(6fW)GAHRCTN-COOH (H-GICV[Trp(6-F)]QD[Trp(6-F)]GAHRCTN-OH; not fully specified (bridges); cysteine pairing not given here) [+G/V4(6fW)/W7(6fW)H9A + N-OH]
Activity over compstatin (complement activation): 126xmore

Ac-ICV(2-lgl)QDWGAHRCT-CONH2 (Ac-ICV[Igl]QDWGAHRCT-NH2; not fully specified (bridges); printed as Ac-ICV(2-lgl)QDWGAHRCT-CONH2; cysteine pairing not given here) [Ac-V42lgl/H9A]
Activity over compstatin (complement activation): 39xmore
